Data published in PMC7193532 (Acta Crystallographica. Section D, Structural Biology, 2020).
*1 amine or outer side, *2 acyl side, *3 side chain or, on linkers, in order; H or OH if unused. Where a SMILES comes first, the peptide text is derived from it. Bridges are numbered along the chain shown (N, C = ends). [ ]: non-standard residue; d: D form. The star is where a group is joined. ξ: configuration not given here. Phe(3R-OH) = O=C([C@@H](N[*:1])[C@H](O[*:3])c1ccccc1)[*:2]; NMeTrp(4-OMe) = CN[CH](Cc1c[nH]c2cccc(OC)c12)C(=O)O; X1 = O=C(C(N[*:1])C(O)c1ccccc1)[*:2]; NMeT = CN[CH](C(=O)O)[CH](C)O; NMeI = CC[CH](C)[CH](NC)C(=O)O; ξNMe2Val = CC(C)C(C(=O)*)N(C)C; NMeL = CN[CH](CC(C)C)C(=O)O; NMeV = CN[CH](C(=O)O)C(C)C

Tests used:
Type in all cases: binding
ClpC1-FL Q17A = ClpC1-FL Q17A (Mycobacterium tuberculosis, UniProt P9WPC9, Q17A)
ClpC1-FL K85A = ClpC1-FL K85A (Mycobacterium tuberculosis, UniProt P9WPC9, K85A)
ClpC1-FL L92S/L96P = ClpC1-FL L92S/L96P (Mycobacterium tuberculosis, UniProt P9WPC9, L92S/L96P)
ClpC1-NTD MAFER = ClpC1-NTD MAFER (Mycobacterium tuberculosis, UniProt P9WPC9); settings: relative to wild type
ClpC1-NTD MVFER = ClpC1-NTD MVFER (Mycobacterium tuberculosis, UniProt P9WPC9); settings: relative to wild type
ClpC1-NTD FER = ClpC1-NTD FER (Mycobacterium tuberculosis, UniProt P9WPC9); settings: relative to wild type
ClpC1-NTD AAFER = ClpC1-NTD AAFER (Mycobacterium tuberculosis, UniProt P9WPC9)
ClpC1-FL V14A = ClpC1-FL V14A (Mycobacterium tuberculosis, UniProt P9WPC9, V14A)

Structure (SMILES)	reduction of binding, Q17A (ClpC1-FL Q17A)	reduction of binding affinity, K85A (ClpC1-FL K85A)	binding to double mutant L92S/L96P (in words) (ClpC1-FL L92S/L96P)	decrease of binding, insertion of Ala before Phe2 (ClpC1-NTD MAFER) [fold]	reduction of binding, insertion of Val before Phe2 (ClpC1-NTD MVFER)	reduction of binding affinity, deletion of Met1 (ClpC1-NTD FER)	reduction of binding affinity, Met1Ala mutation and Ala insertion (ClpC1-NTD AAFER) [fold]	reduction of binding affinity, V14A (ClpC1-FL V14A)	reduction of binding affinity, L92S/L96P (ClpC1-FL L92S/L96P)
CCC(C)C(C(=O)NC1C(=O)N(C)C(C(C)O)C(=O)NC(C(C)C)C(=O)N(C)C(CC(C)C)C(=O)NC(C(C)C)C(=O)N(C)C(C(C)C)C(=O)N(C)C(Cc2c[nH]c3cccc(OC)c23)C(=O)NC(C(C)C)C(=O)NC(C(O)c2ccccc2)C(=O)NC(C(C)C)C(=O)OC1C)N(C)C(=O)C(NC(=O)C(C(C)C)N(C)C)C(C)C (centres unmarked) [ECU, ecumicin] (ξNMe2Val-V[NMeI]T[NMeT]V[NMeL]V[NMeV][NMeTrp(4-OMe)]V[X1]V; ester 3-C; configuration not given here)	sevenfold	ninefold	abolished binding	72	82 fold	62 fold	68	–	–
CN[C@H](C(=O)N[C@H](C(=O)N[C@@H]1C(=O)N(C)[C@@H]([C@@H](C)O)C(=O)N[C@@H](C(C)C)C(=O)N(C)[C@@H](CC(C)C)C(=O)N[C@@H](C(C)C)C(=O)N(C)[C@@H](C(C)C)C(=O)N(C)[C@@H](Cc2c[nH]c3cccc(OC)c23)C(=O)N[C@@H](C(C)C)C(=O)N[C@@H]([C@H](O)c2ccccc2)C(=O)N[C@@H](C(C)C)C(=O)O[C@@H]1C)C(C)C)C(C)C [OMS-A, ohmyungsamycin A] (H-[NMeV]VT[NMeT]V[NMeL]V[NMeV][NMeTrp(4-OMe)]V[Phe(3R-OH)]V; ester 3-C)	–	–	abolished binding	–	–	–	–	–	–
C/C=C/C[C@@H]1NC(=O)[C@H](CC(C)C)N(C)C(=O)[C@H](CC(C)C)NC(=O)[C@H](Cc2ccc(O)c([N+](=O)[O-])c2)NC(=O)[C@H](C)N2C(=O)[C@H](CC(C)C2O)N(C)C(=O)[C@H](Cc2cn(C(C)(C)C3CO3)c3ccccc23)NC1=O (some centres unmarked) [RUF-I, rufomycin I]	17 fold	fivefold	–	–	sixfold	fivefold	–	eightfold	threefold
